Measured values published in patent US9828342B2, “Isatin derivatives, pharmaceutical compositions thereof, and methods of use thereof” (CITY OF HOPE, priority 2012, dated 2017).
Read-outs that look alike come from different tables or passages of the source.

Experiments:
[1] = system: DU145 prostate cancer cells; assay: MTS cell viability assay in DU145 prostate cancer cells; format: cell-based
Procedure: (§1) Then, MTS assays for cell viability were carried out to determine the IC50 values. Four samples were tested for each isatin derivative at each concentration in each cell line, and the averaged data were shown in Table 2a and FIGS. 1˜4.
(§2) IC50 of values of isatin derivatives Compounds 101˜123 were determined in cancer cell lines DU145 and A2058 respectively.

[2] = system: Stat3; assay: Immunoblot of Stat3 phosphorylation in A2058 cells; format: cell-based, human; conditions: A2058, 0.5-5 μM, 4 hr, vs negative control, concentration-associated
Procedure: (§3) A2058 melanoma cells were incubated in complete growth medium in 100 mm petri dishes (1×10^6 cells per dish) for 24 hr. Compound 2 was added at a concentration of 0.5 μM, 1.0 μM, 2.5 μM, and 5 μM respectively. Cell samples that were not added any Compound 2 were negative controls. After 4 hr, cells were lysed using Laemmli buffer. Differences in the phosphorylation of Her2/Neu, Jak2, Src, Stat3, AKT, and Erk1/2 were determined by immunoblot analysis (FIG. 14a).
as §3, with “of” for “of 0.5 μM, 1.0 μM, 2.5 μM, and”, “μM.” for “μM respectively.”, “Cells” for “After 4 hr, cells”, “buffer 0.5 hr, 1 hr, 2 hr, 4 hr, 6 hr and 24 hr after treatment.” for “buffer.”, “of” for “of Her2/Neu,”, “14b).” for “14a).”

[3] = system: OVCAR5 ovarian cancer cells; assay: MTS cell viability assay in OVCAR5 ovarian cancer cells; format: cell-based; conditions: Homo sapiens, OVCAR-5, OVCAR5, 48 hr, 1% DMSO
Procedure: (§4) Each type of cells (5,000 or 10,000 cells/well) were treated with different concentration (0.1 μM to 20 μM in 1% DMSO of cisplatin or Compound 2, 9, 12, 16 or 22 respectively for 48 hr). Then, MTS assays for cell viability were carried out to determine the IC50 values. Four samples were tested for each test compound at each concentration for each type of cells, and the averaged data were shown in Table 4 and FIGS. 6-8.

[4] = system: Erk1/2; assay: Immunoblot of Erk1/2 phosphorylation in DU145 cells; format: cell-based; conditions: DU145, 0.5-5 μM, 4 hr, EGF 10 ng/ml, vs negative control, concentration-associated
Procedure: as §3, with “DU145 prostate cancer” for “A2058 melanoma”, “hr, EGF (10 ng/ml final concentration) was added to culture media and” for “hr,”, “Erk1/2” for “Her2/Neu, Jak2, Src, Stat3, AKT,”, “EGFR” for “Erk1/2”, “13).” for “14a).”

[5] = system: EGFR; assay: Immunoblot of EGFR phosphorylation in DU145 cells; format: cell-based; conditions: DU145, 0.5-5 μM, 4 hr, EGF 10 ng/ml, vs negative control, concentration-associated
Procedure: as §3, with “DU145 prostate cancer” for “A2058 melanoma”, “hr, EGF (10 ng/ml final concentration) was added to culture media and” for “hr,”, “Erk1/2” for “Her2/Neu, Jak2, Src, Stat3, AKT,”, “EGFR” for “Erk1/2”, “13).” for “14a).”

[6] = system: PANC-1 pancreatic cancer cells; assay: MTS cell viability assay in PANC-1 pancreatic cancer cells; format: cell-based; conditions: Homo sapiens, PANC-1, 48 hr, 1% DMSO
Procedure: as §4, with “to 10” for “to 20”, “of Compound 2” for “of cisplatin”, “Compound” for “Compound 2, 9, 12, 16 or”, “Table 3” for “Table 4”, “and FIG. 5.” for “and FIGS. 6-8.”

[7] = system: AKT; assay: Immunoblot of AKT phosphorylation in A2058 cells; format: cell-based, human; conditions: A2058, 0.5-5 μM, 4 hr, vs negative control, concentration-associated
Procedure: as §3
as §3, with “of” for “of 0.5 μM, 1.0 μM, 2.5 μM, and”, “μM.” for “μM respectively.”, “Cells” for “After 4 hr, cells”, “buffer 0.5 hr, 1 hr, 2 hr, 4 hr, 6 hr and 24 hr after treatment.” for “buffer.”, “of” for “of Her2/Neu,”, “14b).” for “14a).”

[8] = system: Erk1/2; assay: Immunoblot of Erk1/2 phosphorylation in A2058 cells; format: cell-based, human; conditions: A2058, 0.5-5 μM, 4 hr, vs negative control, concentration-associated
Procedure: as §3
as §3, with “of” for “of 0.5 μM, 1.0 μM, 2.5 μM, and”, “μM.” for “μM respectively.”, “Cells” for “After 4 hr, cells”, “buffer 0.5 hr, 1 hr, 2 hr, 4 hr, 6 hr and 24 hr after treatment.” for “buffer.”, “of” for “of Her2/Neu,”, “14b).” for “14a).”

[9] = system: A2058 human melanoma cells; assay: MTS cell viability assay in A2058 melanoma cells; format: cell-based
Procedure: as §1, §2

[10] = system: Src; assay: Immunoblot of Src phosphorylation in A2058 cells; format: cell-based, human; conditions: A2058, 0.5-5 μM, 4 hr, vs negative control, concentration-associated
Procedure: as §3
as §3, with “of” for “of 0.5 μM, 1.0 μM, 2.5 μM, and”, “μM.” for “μM respectively.”, “Cells” for “After 4 hr, cells”, “buffer 0.5 hr, 1 hr, 2 hr, 4 hr, 6 hr and 24 hr after treatment.” for “buffer.”, “of” for “of Her2/Neu,”, “14b).” for “14a).”

[11] = system: Jak2; assay: Immunoblot of Jak2 phosphorylation in A2058 cells; format: cell-based, human; conditions: A2058, 0.5-5 μM, 4 hr, vs negative control, concentration-associated
Procedure: as §3
as §3, with “of” for “of 0.5 μM, 1.0 μM, 2.5 μM, and”, “μM.” for “μM respectively.”, “Cells” for “After 4 hr, cells”, “buffer 0.5 hr, 1 hr, 2 hr, 4 hr, 6 hr and 24 hr after treatment.” for “buffer.”, “of” for “of Her2/Neu,”, “14b).” for “14a).”

[12] = system: Her2/Neu; assay: Immunoblot of Her2/Neu phosphorylation in A2058 cells; format: cell-based, human; conditions: A2058, 0.5-5 μM, 4 hr, vs negative control, concentration-associated
Procedure: as §3

[13] = system: SKOV3 ovarian cancer cells; assay: MTS cell viability assay in SKOV3 ovarian cancer cells; format: cell-based; conditions: Homo sapiens, SK-OV-3, SKOV3, 48 hr, 1% DMSO
Procedure: as §4

[14] = system: OCI-Ly3 non-Hodgkins B cell lymphoma cells; assay: MTS cell viability assay in OCI-Ly3 lymphoma cells; format: cell-based; conditions: Homo sapiens, OCI-Ly3, 48 hr, 1% DMSO
Procedure: as §4, with “concentration (0.01” for “concentration (0.1”, “to 5” for “to 20”, “of the test compound” for “of cisplatin or Compound 2, 9, 12, 16 or 22”, “Table 5” for “Table 4”, “FIGS. 10˜12.” for “FIGS. 6-8.”

[15] = system: A2780 cisplatin-resistant ovarian cancer cells; assay: MTS cell viability assay in A2780 cisplatin-resistant ovarian cancer cells; format: cell-based; conditions: for IC50: A2780 cisplatin-resistant, 48 hr, 1% DMSO, MTS
Procedure: as §4

[16] = system: PaCa2 pancreatic cancer cells; assay: MTS cell viability assay in PaCa2 pancreatic cancer cells; format: cell-based; conditions: PaCa-2, PaCa2, 48 hr, 1% DMSO
Procedure: as §4, with “to 10” for “to 20”, “of Compound 2” for “of cisplatin”, “Compound” for “Compound 2, 9, 12, 16 or”, “Table 3” for “Table 4”, “and FIG. 5.” for “and FIGS. 6-8.”

[17] = system: Anaplastic Large T cell lymphoma cells; assay: MTS cell viability assay in anaplastic large T cell lymphoma cells; format: cell-based; conditions: 48 hr, 1% DMSO
Procedure: as §4, with “concentration (0.01” for “concentration (0.1”, “to 5” for “to 20”, “of the test compound” for “of cisplatin or Compound 2, 9, 12, 16 or 22”, “Table 5” for “Table 4”, “FIGS. 10˜12.” for “FIGS. 6-8.”

[18] = system: tubulin; assay: In vitro tubulin polymerization assay (HTS-Tubulin polymerization assay kit); format: biochemical; conditions: 1 μM, 4 mg/mL tubulin, 1 hr, 37° C.
Procedure: To determine whether Compound 22 inhibits tubulin formation in vitro, HTS-Tubulin polymerization assay kits (cytoskeleton) were used. The assay procedure was performed using the manufacturer's protocol. Briefly, each 4 mg tubulin was resuspended with 1 mL of the cold G-PEM (80 mM PIPES pH6.9, 2 mM MgCl2, 0.5 mM EGTA) buffer to make the final concentration of 4 mg/mL. The reaction volume was 100 μL. Tubulin polymerization was monitored with the kinetic mode at […] for 1 hr at 37° C. […] Together, compound 22 is a promising lead compound to develop new anticancer drugs as new class of microtubule inhibitors.

[19] = system: Daudi B Cell Burkitt lymphoma cells; assay: MTS cell viability assay in Daudi lymphoma cells; format: cell-based; conditions: Homo sapiens, 48 hr, 1% DMSO
Procedure: as §4, with “concentration (0.01” for “concentration (0.1”, “to 5” for “to 20”, “of the test compound” for “of cisplatin or Compound 2, 9, 12, 16 or 22”, “Table 5” for “Table 4”, “FIGS. 10˜12.” for “FIGS. 6-8.”

[20] = system: Cdc25C; assay: Immunoblot of Cdc25C phosphorylation in DU145 and A2058 cells; format: cell-based; conditions: DU145 or A2058 cells, 0.1, 1 or 2.5 μM, 24 hr, higher dosage
Procedure: (§5) DU145 prostate cancer cells or A2058 melanoma cells were incubated with Compound 22 at a concentration of 0.1, 1, or 2.5 μM or DMSO for 24 hr. Cells were lysed using Laemmli buffer. The differences in the content of Cyclin B1 and phosphorylation of Cdc25C were determined by immunoblot analysis.

[21] = system: Cyclin B1; assay: Immunoblot of Cyclin B1 content in DU145 and A2058 cells; format: cell-based; conditions: DU145 or A2058 cells, 0.1, 1 or 2.5 μM, 24 hr, higher dosage
Procedure: as §5

[22] = system: Ly-3 lymphoma SQ xenografts; assay: Ly-3 lymphoma SQ xenografts in mice; format: in vivo; conditions: oral, 100 mg/kg once a day, 7th treatment day, P=0.03 vs vehicle
Procedure: Ly-3 lymphoma cells (1×10^7) were subcutaneously injected to II-2 rg(ko)/NOD-SCID female mice. 7 mice were treated with vehicle as the control group once a day. 7 mice were treated with Compound 109 as the treatment group by oral administration at 100 mg/kg dose, once a day. Mice were euthanized at the 7th treatment day by IACUC of the Beckman Research Institute of City of Hope. In the figure, * means P=0.03 wherein P values less than 0.05 were considered statistically significant.

[23] = Homo sapiens, DU-145, 48 h, DU145, 48 hr, 0.05 to 10 μM in 1% DMSO, MTS (Table 2a), read-out: DU145 IC50
[24] = Homo sapiens, A2058, 48 h, 0.05 to 10 μM in 1% DMSO, MTS (Table 2a), read-out: A2058 IC50

SMILES: O=C1C(=O)N(Cc2ccccc2)c2ccc(-c3cccnc3)cc21 [Compound 2]
- IC50 [1, 23]: 790 nM
- phosphorylation of Stat3 [2]: less phosphorylations
- IC50 [3]: 800 nM
- phosphorylation of Erk1/2 [4]: less phosphorylations
- phosphorylation of EGFR [5]: less phosphorylations
- IC50 [6]: 970 nM
- phosphorylation of AKT [7]: less phosphorylations
- phosphorylation of Erk1/2 [8]: less phosphorylations
- IC50 [9, 24]: 780 nM
- phosphorylation of Src [10]: less phosphorylations
- phosphorylation of Jak2 [11]: less phosphorylations
- phosphorylation of Her2/Neu [12]: less phosphorylations
- IC50 [13]: > 5000 nM

SMILES: O=C1C(=O)N(CCCc2ccccc2)c2ccc(-c3cccnc3)cc21 [Compound 9]
- IC50 [14]: 260 nM
- IC50 [1, 23]: 470 nM
- IC50 [3]: 840 nM
- IC50 [15]: 390 nM
- viability of A2780 cisplatin-resistant ovarian cancer cells in comparison of cisplatin ([15]; FIG. 9, compared with cisplatin): significantly reduced the viability
- IC50 ([15]; Homo sapiens, A2780, 48 h): 750 nM
- IC50 [9, 24]: 660 nM

SMILES: O=C1C(=O)N(C/C=C/c2ccccc2)c2ccc(-c3cccnc3)cc21 [Compound 22]
- IC50 [14]: 39 nM
- IC50 [1, 23]: 300 nM
- IC50 [3]: 340 nM
- IC50 [16]: 96 nM
- IC50 [6]: 100 nM
- IC50 ([15]; Homo sapiens, A2780, 48 h): 440 nM
- IC50 [9, 24]: 210 nM
- IC50 [17]: 130 nM
- tubulin polymerization in vitro [18]: substantially inhibited tubulin polymerization
- IC50 [19]: 38 nM
- phosphorylation of Cdc25C [20]: less phosphorylation of Cdc25C
- content of Cyclin B1 [21]: increased amount of Cyclin B1

SMILES: O=C1C(=O)N(C/C=C/c2cccnc2)c2ccc(-c3cccnc3)cc21 [Compound 109]
- IC50 [14]: 63 nM
- IC50 ([1]; DU145, compound in DMSO, 48 hr, MTS (Table 2b), read-out: IC50 value, DMSO, DU145): 480 nM
- IC50 ([1]; Homo sapiens, DU-145, 48 h, DU145, compound in water, 48 hr, MTS (Table 2b), read-out: IC50 value, Water, DU145): 630 nM
- efficacy (tumor volume) in Ly-3 lymphoma SQ xenografts [22]: statistically significantly showed efficacy
- IC50 ([9]; A2058, compound in DMSO, 48 hr, MTS (Table 2b), read-out: IC50 value, DMSO, A2058): 580 nM
- IC50 ([9]; Homo sapiens, A2058, 48 h, A2058, compound in water, 48 hr, MTS (Table 2b), read-out: IC50 value, Water, A2058): 1000 nM
